Measurements published in US20210198277A1, “AMINE-SUBSTITUTED ARYL OR HETEROARYL COMPOUNDS” (Epizyme, Inc., priority 2016, published 2021).
Like-named read-outs stand apart in the source and are kept apart here.

Biological target: T1, human EHMT2 913-1193 (Homo sapiens, UniProt Q96KQ7)
T1 construct: recombinant purified human EHMT2 913-1193, Viva; purchased Viva
T1 sequence (Q96KQ7 913-1193): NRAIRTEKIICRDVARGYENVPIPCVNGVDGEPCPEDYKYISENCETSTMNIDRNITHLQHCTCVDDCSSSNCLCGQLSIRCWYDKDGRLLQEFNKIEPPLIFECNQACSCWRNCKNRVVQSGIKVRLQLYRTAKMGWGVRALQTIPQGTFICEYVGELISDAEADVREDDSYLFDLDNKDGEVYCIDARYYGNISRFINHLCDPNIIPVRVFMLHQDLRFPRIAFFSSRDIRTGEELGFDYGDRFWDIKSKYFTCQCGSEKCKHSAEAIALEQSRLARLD
Experiment: EHMT2 enzyme assay on histone peptide substrate (EHMT2 PEP)
Assay type: biochemical
In short: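 Radiometric methyltransferase read-out: ^3H-methyl transfer from ^3H-SAM onto biotinylated histone peptide, captured on streptavidin Flashplates after 60 min reaction at room temperature. Enzyme 0.031 nM, preincubated 30 min with inhibitor; buffer 20 mM Bicine pH 7.5 with 1 mM TCEP; top compound concentration 50 μM final, 2% DMSO.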

[1] = Table III, read-out: EHMT2 PEP (IC50 μM)
[2] = Table VI, read-out: EHMT2 PEP IC50

Structure (SMILES)	IC50 [1]	IC50 [2]
CNc1cc(C)nc(Nc2ccc(OC)c(O[C@H]3C[C@H](N(C)C)C3)c2)n1 (single isomer, unassigned) [Compound 329, N^2-(3-((1r,3r)-3-(dimethylamino)cyclobutoxy)-4-methoxyphenyl)-N^4,6-dimethylpyrimidine-2,4-diamine]	1 to 10 µM	–
COc1ccc(Nc2ccc3cnn(C)c3n2)cc1OCCCN1CCCC1 [Compound 257, N-(4-methoxy-3-(3-(pyrrolidin-1-yl)propoxy)phenyl)-1-methyl-1H-pyrazolo[3,4-b]pyridin-6-amine]	> 10 µM	–
COc1ccc(Nc2cc3c(cn2)ncn3C)cc1OCCCN1CCCC1 [Compound 258, N-(4-methoxy-3-(3-(pyrrolidin-1-yl)propoxy)phenyl)-1-methyl-1H-imidazo[4,5-c]pyridin-6-amine]	> 10 µM	–
COc1ccc(Nc2nccc(NCC3CCOCC3)n2)cc1OC1CCC2(CC1)CCN(C)C2 (stereo not drawn) [Compound 259, N^2-(4-methoxy-3-((2-methyl-2-azaspiro[4.5]decan-8-yl)oxy)phenyl)-N^4-((tetrahydro-2H-pyran-4-yl)methyl)pyrimidine-2,4-diamine]	> 10 µM	–
COc1ccc(Nc2nccc(NCC3CCOCC3)n2)cc1OC1CCC2(CC1)CN(C)C2 [Compound 260, N^2-(4-methoxy-3-((2-methyl-2-azaspiro[3.5]nonan-7-yl)oxy)phenyl)-N^4-((tetrahydro-2H-pyran-4-yl)methyl)pyrimidine-2,4-diamine]	> 10 µM	–
CNc1cnnc(Nc2cc(OCCCN3CCCC3)c(OC)cn2)c1 [Compound 322, N^3-(5-methoxy-4-(3-(pyrrolidin-1-yl)propoxy)pyridin-2-yl)-N^5-methylpyridazine-3,5-diamine]	< 0.1 µM	–
CNc1cc(Nc2cc(OCCCN3CCCC3)c(OC)cn2)cnn1 [Compound 323, N^5-(5-methoxy-4-(3-(pyrrolidin-1-yl)propoxy)pyridin-2-yl)-N^3-methylpyridazine-3,5-diamine]	> 10 µM	–
CNc1cc(Nc2cc(OCCCN3CCCC3)c(OC)cn2)ncn1 [Compound 324, N^4-(5-methoxy-4-(3-(pyrrolidin-1-yl)propoxy)pyridin-2-yl)-N^6-methylpyrimidine-4,6-diamine]	1 to 10 µM	–
CNc1cc(Nc2cc(OCCCN3CCCC3)c(OC)cn2)nc(C)n1 [Compound 325, N^4-(5-methoxy-4-(3-(pyrrolidin-1-yl)propoxy)pyridin-2-yl)-N^6,2-dimethylpyrimidine-4,6-diamine]	1 to 10 µM	–
COc1cnc(Nc2nc(C)nc3[nH]ccc23)cc1OCCCN1CCCC1 [Compound 326, N-(5-methoxy-4-(3-(pyrrolidin-1-yl)propoxy)pyridin-2-yl)-2-methyl-7H-pyrrolo[2,3-d]pyrimidin-4-amine]	0.1 to 1 µM	–
CNc1nc(Nc2ccc(OC)c(OCCCN3CCCC3)c2)nc2c1CCC2 [Compound 328, N^2-(4-methoxy-3-(3-(pyrrolidin-1-yl)propoxy)phenyl)-N^4-methyl-6,7-dihydro-5H-cyclopenta[d]pyrimidine-2,4-diamine]	0.1 to 1 µM	–
CNc1cc(C)nc(Nc2ccc(OC)c(OC[C@H]3C[C@H](N(C)C)C3)c2)n1 [Compound 330]	> 10 µM	–
CNc1cc(C)nc(Nc2ccc(OC)c(O[C@H]3C[C@H](CN(C)C)C3)c2)n1 [Compound 331, N^2-(3-((1r,3r)-3-((dimethylamino)methyl)cyclobutoxy)-4-methoxyphenyl)-N^4,6-dimethylpyrimidine-2,4-diamine]	> 10 µM	–
CNc1cc(C)nc(Nc2cnc(OC)c(OCCCN3CCCC3)c2)n1 [Compound 332, N^2-(6-methoxy-5-(3-(pyrrolidin-1-yl)propoxy)pyridin-3-yl)-N^4,6-dimethylpyrimidine-2,4-diamine]	< 0.1 µM	–
CCn1nc(Nc2nccc3[nH]ccc23)cc1COCCN1CCCC1 [Compound 333]	1 to 10 µM	–
COc1cnc(Nc2ccnc3[nH]ccc23)cc1OCCCN1CCCC1 [Compound 335, N-(5-methoxy-4-(3-(pyrrolidin-1-yl)propoxy)pyridine-2-yl)-1H-pyrrolo[2,3-b]pyridin-4-amine]	0.1 to 1 µM	–
COc1cnc(Nc2cc(C)nc3[nH]ccc23)cc1OCCCN1CCCC1 [Compound 336, N-(5-methoxy-4-(3-(pyrrolidin-1-yl)propoxy)pyridin-2-yl)-6-methyl-1H-pyrrolo[2,3-b]pyridin-4-amine]	0.1 to 1 µM	–
COc1ccc(Nc2nc(C)c(F)c(NC(C)C)n2)cc1OCCCN1CCCC1 [Compound 337]	1 to 10 µM	–
COc1ccc(Nc2nccc(-n3nc(C)cc3C)n2)cc1OCCCN1CCCC1 [Compound 338]	> 10 µM	–
CNCc1cnc(Nc2ccc(OC)c(OCCCN3CCCC3)c2)nc1 [Compound 339]	> 10 µM	–
COc1ccc(Nc2ccnc(NCC3CCN(C(C)=O)CC3)n2)cc1OCCCN1CCCC1 [Compound 340]	0.1 to 1 µM	–
COc1ccc(Nc2ccc3cnn(C)c3c2)cc1OCCCN1CCCC1 [Compound 341]	> 10 µM	–
COc1ccc(Nc2ccc3ncn(C)c3n2)cc1OCCCN1CCCC1 [Compound 342]	> 10 µM	–
COc1ccc(Nc2ncc3ncn(C)c3n2)cc1OCCCN1CCCC1 [Compound 343]	> 10 µM	–
COc1ccc(Nc2cccc3ncnn23)cc1OCCCN1CCCC1 [Compound 344]	> 10 µM	–

Other lines, results leading:

IC50 [1]	IC50 [2]	Structure (SMILES)
> 10 µM	–	COc1ccc(Nc2ccc3nn(C)cc3c2)cc1OCCCN1CCCC1 [Compound 345]
> 10 µM	–	COc1ccc(Nc2cccc3cn(C)nc23)cc1OCCCN1CCCC1 [Compound 346]
1 to 10 µM	–	COc1ccc(Nc2ccc3ncc(C)n3n2)cc1OCCCN1CCCC1 [Compound 347]
> 10 µM	–	COc1ccc(Nc2nccc(-c3cnn(C)c3)n2)cc1OCCCN1CCCC1 [Compound 348]
1 to 10 µM	–	COc1ccc(Nc2nccc(Nc3cccc(F)c3)n2)cc1OCCCN1CCCC1 [Compound 349]
0.1 to 1 µM	–	COc1ccc(Nc2nccc(NCC3CCOCC3)n2)cc1NCCCN1CCCC1 [Compound 350]
> 10 µM	–	COc1ccc(OCCCN2CCCC2)cc1Nc1nccc(NCC2CCOCC2)n1 [Compound 351]
> 10 µM	–	COc1ccc(NCCCN2CCCC2)cc1Nc1nccc(NCC2CCOCC2)n1 [Compound 352]
0.1 to 1 µM	–	CNc1ccnc(Nc2ccc(OC)c(OCCCN3CC[C@@H](F)C3)c2)n1 [Compound 353]
1 to 10 µM	–	CNc1ccnc(Nc2ccc(OC)c(OCCCN3CC(F)C3)c2)n1 [Compound 354]
–	1 to 10 µM	CNc1cc2nccn2c(Nc2cc(OCCCN3CCCC3)c(OC)cn2)n1 [Compound 611]
–	0.1 to 1 µM	CCN1CC(COc2cc(Nc3nc(C)cc4[nH]ccc34)ncc2OC)C1 [Compound 613]
–	1 to 10 µM	CNc1cc(C)nc(Nc2cc(OCCCN3CCCC3)c3nc(C)cn3c2)n1 [Compound 616]
–	1 to 10 µM	CNc1cc(C)nc(Nc2cc(OCCCN3CCCC3)c3nccn3c2)n1 [Compound 618]
–	0.1 to 1 µM	COc1cc2c(C3CCN(C)CC3)cc(C#N)nc2cc1OCCCN1CCCC1 [Compound 790]
–	> 10 µM	CNc1cc(C)nc(Nc2cc(OCCCN3CCCC3)c3oncc3c2)n1 [Compound 793]
–	> 10 µM	COc1ccc(Nc2nn(C)c3cnccc23)cc1OCCCN1CCCC1 [Compound 794]
–	> 10 µM	COc1cnc(Nc2nn(C)c3cnccc23)cc1OCCCN1CCCC1 [Compound 795]
–	> 10 µM	COc1ccc(Nc2cc(C)[nH]n2)cc1OCCCN1CCCC1 [Compound 796]

IC50 [1]	IC50 [2]	Structure (SMILES)
–	> 10 µM	COc1ccc(Nc2cc(C)n(C)n2)cc1OCCCN1CCCC1 [Compound 797]
–	0.1 to 1 µM	CNc1cc(C)nc(Nc2cnc(OC)c(OC[C@@H]3CCN(C4CCC4)C3)c2)n1 [Compound 798]
–	< 0.1 µM	COc1ccc(Nc2nc(C)cc(NC(C)C)n2)cc1OC[C@@H]1CCNC1 [Compound 800]
–	> 10 µM	COc1cnc(Nc2nccc3nccn23)cc1OC[C@@H]1CCNC1 [Compound 801]
–	< 0.1 µM	CNc1cc(C2CCOCC2)c2cc(OC)c(OC[C@@H]3CCNC3)cc2n1 [Compound 802]
–	0.1 to 1 µM	CNc1cc(C2CCOCC2)c2cc(OC)c(OC[C@@H]3CCN(C)C3)cc2n1 [Compound 803]
–	1 to 10 µM	COc1cc(NC2CCOCC2)ncc1OCC1CCNC1 (stereo not drawn) [Compound 806]
–	> 10 µM	COc1cc(N(C)C2CCOCC2)ncc1OCC1CCNC1 (stereo not drawn) [Compound 808]
–	< 0.1 µM	CNc1cc(C2CCN(C(C)=O)CC2)c2cc(OC)c(OCCCN3CCCC3)cc2n1 [Compound 809]
–	0.1 to 1 µM	COc1cc2c(C)cc(N3CCCCC3)nc2cc1OCCCN1CCCC1 [Compound 810]
–	> 10 µM	COc1cc2c(C)nc(N3CCCCC3)nc2cc1OCCCN1CCCC1 [Compound 811]
–	< 0.1 µM	COc1cc2c(C3CCN(C)CC3)cc(N3CCCCC3)nc2cc1OCCCN1CCCC1 [Compound 812]
–	1 to 10 µM	CNc1cc(C)nc(Nc2ccc(OC)c(CN[C@H]3CCNC3)c2)n1 [Compound 813]
–	1 to 10 µM	CNc1cc(C)nc(Nc2ccc(OC)c(CN[C@@H]3CCNC3)c2)c1 [Compound 814]
–	< 0.1 µM	CNc1cc(C2CCCCC2)c2cc(OC)c(OCCCN3CCCC3)cc2n1 [Compound 816]
–	< 0.1 µM	CNc1cc(C(C)C)c2cc(OC)c(OCCCN3CCCC3)cc2n1 [Compound 817]
–	> 10 µM	COc1cc2c(C3CCOCC3)cc(=O)[nH]c2cc1OCCCN1CCCC1 [Compound 822]
–	< 0.1 µM	CNc1cc(CC2CCOCC2)c2cc(OC)c(OCCCN3CCCC3)cc2n1 [Compound 823]
–	0.1 to 1 µM	COc1cc2c(C3CCOCC3)cc(N3CCCCC3)nc2cc1OCCCN1CCCC1 [Compound 824]
